Data taken from ChEMBL document CHEMBL1145844 (J Med Chem, 2003).

Key:
Mu-type opioid receptor [1] = target: T1, Mu-type opioid receptor (Homo sapiens, UniProt P35372); test: Effective concentration agonistic activity towards Opioid receptor mu 1; format: functional
[2] = target: Opioid receptors; delta & kappa (Homo sapiens, UniProt P41145+P41143); test: Ratio of kappa/delta-opioid receptors Binding affinity; format: protein assay
Mu-type opioid receptor [3] = target: T1, Mu-type opioid receptor; test: Binding affinity for human Opioid receptor mu 1 transfected into chinese hamster ovary cells by displacing [3H]DAMGO radioligand; format: cell-based
Mu-type opioid receptor [4] = target: T1, Mu-type opioid receptor; test: % stimulation of [35S]GTP-gamma-S, binding in recombinant human Opioid receptor mu 1 transfected into CHO cells; format: functional, cell-based
[5] = target: T2, Delta-type opioid receptor (Homo sapiens, UniProt P41143); test: Binding affinity for human Opioid receptor delta 1 transfected into chinese hamster ovary cells by displacing [3H]CI-DPDPE radioligand; format: cell-based
T2 sequence (P41143 whole entry): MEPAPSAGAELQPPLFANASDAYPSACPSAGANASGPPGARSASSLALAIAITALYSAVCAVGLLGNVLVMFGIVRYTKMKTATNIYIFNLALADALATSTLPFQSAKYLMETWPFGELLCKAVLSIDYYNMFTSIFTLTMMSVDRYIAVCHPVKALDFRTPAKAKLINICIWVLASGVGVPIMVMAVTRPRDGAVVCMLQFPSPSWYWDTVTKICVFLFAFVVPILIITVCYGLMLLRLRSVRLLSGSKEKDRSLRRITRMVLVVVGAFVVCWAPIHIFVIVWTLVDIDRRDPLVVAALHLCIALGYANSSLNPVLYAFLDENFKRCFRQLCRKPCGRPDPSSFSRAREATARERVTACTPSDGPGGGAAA

[6] = target: T3, Kappa-type opioid receptor (Homo sapiens, UniProt P41145); test: Agonistic activity towards opioid receptor kappa 1; format: functional
T3 sequence (P41145 whole entry): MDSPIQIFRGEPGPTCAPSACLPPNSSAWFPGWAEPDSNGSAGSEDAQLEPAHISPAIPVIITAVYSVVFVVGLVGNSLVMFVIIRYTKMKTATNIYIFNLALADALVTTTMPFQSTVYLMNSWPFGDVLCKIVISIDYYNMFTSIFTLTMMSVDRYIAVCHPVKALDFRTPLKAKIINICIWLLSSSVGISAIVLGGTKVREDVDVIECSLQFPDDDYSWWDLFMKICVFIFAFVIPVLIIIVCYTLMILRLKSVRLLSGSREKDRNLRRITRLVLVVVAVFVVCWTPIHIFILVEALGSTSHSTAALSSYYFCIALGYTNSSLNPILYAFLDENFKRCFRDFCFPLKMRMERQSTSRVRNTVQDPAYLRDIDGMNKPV

[7] = target: T3, Kappa-type opioid receptor; test: % stimulation of [35S]GTP-gamma-S, binding of compound in recombinant human Opioid receptor kappa 1 transfected into CHO cells; format: functional, cell-based
[8] = target: T2, Delta-type opioid receptor; test: Agonistic activity towards Opioid receptor delta 1; format: functional
[9] = target: Opioid receptors; mu & delta (Homo sapiens, UniProt P41143+P35372); test: Ratio of mu/delta-opioid receptors Binding affinity; format: protein assay
[10] = target: T3, Kappa-type opioid receptor; test: Binding affinity in recombinant human Opioid receptor kappa 1 transfected into chinese hamster ovary cells by displacing [3H]U-69593 radioligand; format: cell-based
[11] = target: T3, Kappa-type opioid receptor; test: Agonistic activity towards Opioid receptor kappa 1; format: functional
[12] = target: T2, Delta-type opioid receptor; test: % stimulation of [35S]GTP-gamma-S, binding in recombinant human Opioid receptor delta 1 transfected into CHO cells; format: functional, cell-based

T1 sequence (P35372 whole entry): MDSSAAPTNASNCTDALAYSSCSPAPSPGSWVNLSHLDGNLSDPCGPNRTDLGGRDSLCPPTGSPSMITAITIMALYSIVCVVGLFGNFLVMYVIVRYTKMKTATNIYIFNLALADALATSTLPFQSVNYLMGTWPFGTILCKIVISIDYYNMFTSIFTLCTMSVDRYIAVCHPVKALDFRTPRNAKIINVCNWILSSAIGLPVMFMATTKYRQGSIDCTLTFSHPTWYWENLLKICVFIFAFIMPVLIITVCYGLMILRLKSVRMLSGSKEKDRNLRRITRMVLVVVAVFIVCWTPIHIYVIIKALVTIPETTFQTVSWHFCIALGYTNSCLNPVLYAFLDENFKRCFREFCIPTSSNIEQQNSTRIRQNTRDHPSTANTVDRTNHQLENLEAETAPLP

Structure (SMILES) | EC50 (Mu-type opioid receptor [1]) | Ki [2] | Ki (Mu-type opioid receptor [3]) | Stimulation (Mu-type opioid receptor [4]) | Ki [5] | EC50 [6] | Stimulation [7] | EC50 [8] | Ki [9] | Ki [10] | EC50 [11] | Stimulation [12]
C/C=C1\C[C@@]23Cc4c([nH]c5ccccc45)[C@@H]1[C@@]21CCN(C)C3Cc2ccc(OC)c(O)c21 | 1640 nM | 2.9 | 122 nM | 41% | 82.5 nM | 2210 nM | 36% | 221 nM | 1.5 | 239 nM | – | –
CC(C)=CC[C@@]12Cc3c([nH]c4ccccc34)[C@]3(C)Oc4c(O)ccc5c4[C@]13CCN(C)C2C5 | 1200 nM | 8.6 | 254 nM | 72% | 51.4 nM | – | 31% | 90.1 nM | 4.9 | 440 nM | 945 nM | 43%
COc1ccc2c(c1O)[C@]13CCN(C)C(C2)[C@@]12C/C(=C\c1ccccc1)[C@@H]3c1[nH]c3ccccc3c1C2 | 44.7 nM | 2.2 | 6.3 nM | 110% | 15.9 nM | – | 83% | 42.6 nM | 0.4 | 34.6 nM | 323 nM | 87%
COc1ccc2c(c1O)[C@]13CCN(C)C(C2)[C@]12CCC(=O)[C@H]3/C(=C/c1ccccc1)C2 | 6.7 nM | 0.04 | 0.43 nM | 123% | 5.5 nM | – | 85% | 4.19 nM | 0.08 | 0.2 nM | 17.5 nM | 80%
COc1ccc2c(c1O)[C@]13CCN(C)C(C2)[C@@]12CC(=C(C)C)[C@@H]3c1[nH]c3ccccc3c1C2 | 1020 nM | 0.3 | 330 nM | 52% | 103 nM | – | 44% | 211 nM | 3.2 | 28.4 nM | 866 nM | –
CN1CC[C@]23c4c5ccc(O)c4O[C@@]2(C)c2[nH]c4ccccc4c2C[C@@]3(C/C=C/c2ccccc2)C1C5 | 804 nM | 7.5 | 43.8 nM | 85% | 12.5 nM | – | 60% | 21.8 nM | 3.5 | 94.2 nM | 2050 nM | 79%
COc1ccc2c(c1O)[C@]13CCN(C)C(C2)[C@]12CCC(=O)[C@H]3/C(=C(\C)c1ccccc1)C2 | 15.2 nM | 0.02 | 4.54 nM | 108% | 5.66 nM | – | 116% | 72.3 nM | 0.8 | 0.14 nM | 3.38 nM | 108%
COc1ccc2c(c1O)[C@]13CCN(C)C(C2)[C@@]12C/C(=C(/C)c1ccccc1)[C@@H]3c1[nH]c3ccccc3c1C2 | 139 nM | 0.03 | 13.4 nM | 144% | 23.2 nM | – | 97% | 368 nM | 0.6 | 0.61 nM | 82.4 nM | 168%
